Reference: US5663174A, “Aromatic sulfonamide derivatives, their use as enzyme inhibitors and pharmaceutical compositions containing them” (Pharno-Wedropharm GmbH, priority 1997, dated 1997)
Where two headings read alike, the source gives them in different places.

Molecular target: T1, bovine pancreatic PLA2 (Bos taurus, UniProt P00593)
T1 construct: from tissue; host or cells: bovine pancreas
Assay: Phospholipase A2 (PLA2) activity, enzyme assay
Type: biochemical
Method: Phospholipase A2 (PLA2) activity was measured using bovine pancreatic PLA2 as the enzyme and a sonicated dispersion of 1-stearoyl-2-[C^14 ]-arachidonyl-phosphatidylcholine (56 mCi/mmol) as the substrate in the following manner: 60 ng bovine pancreatic PLA2 was mixed and incubated with buffer and inhibitors (100 mM Tris, pH 8; 100 mM CaCl2; 20 mM EDTA, pH 8) at 37° C. for 10 min. to allow interaction between the enzyme and the drugs. The substrate (38 nCi) in buffer and 0.3% cholate was added to initiate the reaction which continued for 20 min. at 37° C. The total reaction volume was 0.1 ml. The reaction was stopped by adding 0.1 ml of an ice cold EtOH/HOAc 98:2 mixture. Released arachidonic acid was separated from the unreacted substrate via thin layer chromatography on silica gel (solvent system CHCl3 /MeOH/H2 O 14:6:1). The radioactivity of the two spots was quantified using a bioscanner.
Inhibitors were dissolved in buffer^13 and tested in duplicate within each experiment, and each inhibitor was tested in at least two experiments. When necessary, inhibitors were dissolved in DMSO^14. The % inhibition at a given concentration was combined for several experiments and the IC50 determined from a semilog plot of % inhibition vs concentration. Under the condition described the rate of hydrolysis was 20-25% of the substrate being hydrolyzed in absence of inhibitors.
^13 0.01 ml inhibitor solution were used in these experiments.
^14 0.005 ml inhibitor solution were used in these experiments (=5 vol %).

[1] = Table 20, from semilog plot of % inhibition vs concentration, substrate 1-stearoyl-2-[C^14]-arachidonyl-phosphatidylcholine, 37° C., pH 8, 20 min, read-out: IC50
[2] = Table 20, from semilog plot of % inhibition vs concentration, substrate 1-stearoyl-2-[C^14]-arachidonyl-phosphatidylcholine, 37° C., pH 8, 20 min

T1 sequence (P00593 23-145): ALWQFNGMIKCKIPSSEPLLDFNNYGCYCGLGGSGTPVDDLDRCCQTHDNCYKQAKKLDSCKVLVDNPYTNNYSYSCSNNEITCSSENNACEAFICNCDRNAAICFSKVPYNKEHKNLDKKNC

Structure (SMILES)	IC50 [1]	further results
O=S(=O)(Nc1ccc(-c2ccccc2)cc1)c1cccc2c(Cl)cccc12 [Compound 30, N-biphenyl-5-chloro-1-naphthalenesulfonamide]	275 µM	–
O=C([C@H](Cc1ccccc1)NS(=O)(=O)c1cccc2cnccc12)N1CCNCC1 [Compound 31, N-(5-isoquinolinesulfonyl)-L-phenylalanine piperazineamide]	–	IC50 [2]: promotion; inhibition at 100 µM: 70.1%; inhibition at 300 µM (at 300 μM): 54%
CC(C)[C@H](NS(=O)(=O)c1cccc2c(Cl)cccc12)C(=O)N1CCNCC1 [Compound 22, N-(5-chloro-1-naphthalenesulfonyl)-L-valine piperazineamide]	310 µM	–
NCCCCCCNC(=O)[C@H](Cc1ccccc1)NS(=O)(=O)c1cccc2c(Cl)cccc12 [Compound 25, N-(5-chloro-1-naphthalenesulfonyl)-L-phenylalanine-1,6-diaminohexaneamide]	–	IC50 (text example, read-out: IC50 (concentration which would bring about an inhibition of 50%)): 67 µM
O=S(=O)(Nc1ccc(-c2ccccc2)cc1)c1cccc2cnccc12 [Compound 41, N-biphenyl-5-isoquinolinesulfonamide]	–	IC50 [2]: promotion; inhibition at 10 µM (at 10 μM): 31.6%; inhibition at 100 µM: 28.3%
O=C(Nc1ccc(-c2ccccc2)cc1)[C@H](Cc1c[nH]c2ccccc12)NS(=O)(=O)c1ccccc1 [Compound 11, N-benzenesulfonyl-L-tryptophane biphenylamide]	570 µM	–
O=C([C@H](Cc1ccccc1)NS(=O)(=O)c1cccc2c(Cl)cccc12)N1CCNCC1 [Compound 21, N-(5-chloro-1-naphthalenesulfonyl)-L-phenylalanine piperazineamide]	600 µM	–
O=C([C@H](Cc1ccccc1)NS(=O)(=O)c1ccccc1)N1CCNCC1 [Compound 1, N-benzenesulfonyl-L-phenylalanine piperazineamide]	–	IC50 [2]: promotion
O=C(Nc1ccc(-c2ccccc2)cc1)[C@H](Cc1ccccc1)NS(=O)(=O)c1ccccc1 [Compound 7, N-benzenesulfonyl-L-phenylalanine biphenylamide]	310 µM	–
O=C(Nc1ccc(-c2ccccc2)cc1)[C@@H]1CCCN1S(=O)(=O)c1ccccc1 [Compound 10, N-benzenesulfonyl-L-proline biphenylamide]	520 µM	–
C[C@H](NS(=O)(=O)c1ccccc1)C(=O)N1CCNCC1 [Compound 2, N-benzenesulfonyl-L-alanine piperazineamide]	–	IC50 [2]: promotion

Now from value to compound, other results behind:

IC50 [1]	Structure (SMILES)	further results
130 µM	O=C(Nc1ccc(-c2ccccc2)cc1)[C@@H]1CCCN1S(=O)(=O)c1cccc2cnccc12 [Compound 38, N-(5-isoquinolinesulfonyl)-L-proline biphenylamide]	–
435 µM	O=C(Nc1ccc(-c2ccccc2)cc1)[C@H]1CCCN1S(=O)(=O)c1cccc2cnccc12 [Compound 40, N-(5-isoquinolinesulfonyl)-D-proline biphenylamide]	–
263 µM	NCCCCCCNC(=O)[C@H](Cc1ccccc1)NS(=O)(=O)c1cccc2cnccc12 [Compound 35, N-(5-isoquinolinesulfonyl)-L-phenylalanine-1,6-diaminohexaneamide]	–
190 µM	O=S(=O)(Nc1ccccc1)c1cccc2c(Cl)cccc12 [compound 43, reference compound]	–
470 µM	CC(C)[C@H](NS(=O)(=O)c1cccc2cnccc12)C(=O)Nc1ccc(-c2ccccc2)cc1 [Compound 37, N-(5-isoquinolinesulfonyl)-L-valine biphenylamide]	–
